B1: 8762NT: human rDNA-derived DNA oligonucleotide CGGAGGGCGCGCGGGTCGGGGCGGCGGCGGCGGCGGCGGTGGCGGCGGCGGCGGGGGCGGCGGG (nucleic acid)
DNA: CGGAGGGCGCGCGGGTCGGGGCGGCGGCGGCGGCGGCGGTGGCGGCGGCGGCGGGGGCGGCGGG
modifications: chemistry not given here

Molecular target: T1, recombinant nucleolin (Homo sapiens, UniProt P19338)
T1 construct: without the N-terminal acidic stretches domain
Assay: Nucleolin/nucleic acid ligand interaction, gel retardation assay
Type: binding
Design: key: A “+” represents the weakest nucleolin affinity; a “++++” represents the strongest nucleolin affinity
Conditions: relative affinity of each nucleic acid ligand for nucleolin; nucleolin ~250 nM, 32P-labeled ligand 10 or 250 nM, 30 minutes at room temperature
Procedure: The following assays can be used to assess the effects of compounds on interactions between nucleolin and nucleic acid ligands capable of forming quadruplex (QP) and hairpin (HP) secondary structures. Nucleic acid ligands tested were a cMyc QP DNA having nucleotide sequence 5′-[…]-3′ and a HP pre-rRNA region to which nucleolin binds, having the sequence 5′-[…]-3′. In the assays, recombinant nucleolin (˜250 nM), which has been fused to maltose binding protein, and has the sequence under accession number NM_005381 without the N-terminal acidic stretches domain, is incubated with each of the two ^32P-labeled nucleic acid ligands (10 or 250 nM). Nucleolin and the nucleic acid ligand are incubated in the presence or absence of a test compound 7 in an incubation buffer (12.5 mM Tris, pH 7.6, 60 mM KCl, 1 mM MgCl2, 0.1 mM EDTA, 1 mM DTT, 5% glycerol, 0.1 mg/ml BSA) for 30 minutes at room temperature.
The resulting complexes are separated on a 6% DNA retardation gel using 0.5× TBE with 20 mM KCl as a running buffer. The assay also can be conducted using nucleic acid ligands derived from human ribosomal DNA, whereby one can identify a compound that selectively modulates formation of a nucleolin/nucleic acid complex that depends on the conformation of the nucleic acid. Sequences of suitable nucleic acids are shown in the preceding example. […] A “+” represents the weakest nucleolin affinity and a “++++” represents the strongest nucleolin affinity. […] Using nucleic acids such as these having known conformational properties, one can identify a compound such as the compounds described herein that selectively interferes with binding of nucleolin to a particular quadruplex structure.

T1 sequence (P19338 284-710 limits assumed): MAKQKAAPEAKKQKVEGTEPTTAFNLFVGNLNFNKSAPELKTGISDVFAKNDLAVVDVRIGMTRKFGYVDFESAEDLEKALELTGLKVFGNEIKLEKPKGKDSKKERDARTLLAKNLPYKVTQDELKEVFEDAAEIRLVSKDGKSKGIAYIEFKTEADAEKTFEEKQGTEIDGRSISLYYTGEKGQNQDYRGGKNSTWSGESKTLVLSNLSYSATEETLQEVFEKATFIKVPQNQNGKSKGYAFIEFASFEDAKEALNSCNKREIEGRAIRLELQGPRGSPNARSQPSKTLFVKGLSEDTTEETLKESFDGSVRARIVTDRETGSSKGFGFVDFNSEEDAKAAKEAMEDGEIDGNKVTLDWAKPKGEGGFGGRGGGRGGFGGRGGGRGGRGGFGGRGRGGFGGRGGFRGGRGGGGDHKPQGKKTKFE

| Molecule | Affinity for Nucleolin |
| --- | --- |
| 11028NT: human rDNA-derived DNA oligonucleotide GGGGCGCGGCGGGGGGAGAAGGGTCGGGGCGGCAGGGG (chemistry not given here) [Compound 11028NT] | + |
| 7733T: human rDNA-derived DNA oligonucleotide GGGAGGGGCACGGGCCGGGGGCGGGACGGG (chemistry not given here) [Compound 7733T] | + |
| 8749NT: human rDNA-derived DNA oligonucleotide GGGAGGGCGCGCGGGTCGGGG (chemistry not given here) [Compound 8749NT] | + |
| 6183NT: human rDNA-derived DNA oligonucleotide GGGTCGGGGGCGGTGGTGGGCCCGCGGGGG (chemistry not given here) [Compound 6183NT] | + |
| 8511NT: human rDNA-derived DNA oligonucleotide GGGGGTGGGCGGGCGGGGCCGGGGGTGGG (chemistry not given here) [Compound 8511NT] | ++++ |
| B1 | ++++ |

From US20100305136A1, “QUINOLONE ANALOGS DERIVATIZED WITH SULFONIC ACID, SULFONATE OR SULFONAMIDE” (priority 2006, published 2010)
